As usually defined, the MIC is the least concentration at which growth counts as inhibited. By MIC90 is commonly meant the lowest concentration that inhibits either 90% of growth or 90% of the strains tested, depending on the study. One may read the MFC as the lowest tested concentration that kills the fungus rather than only halting it. A lower MFC goes with greater fungicidal potency.

We go through 4 compounds from ChEMBL document CHEMBL4715897, “A new 1-nitro-9-aminoacridine derivative targeting yeast topoisomerase II able to overcome fluconazole-resistance” (2021).

Assay [1] deals with Trichophyton rubrum. The assay can be described thus: Antifungal activity against Trichophyton rubrum assessed as reduction in microbial growth after 48 hrs by microdilution method. It counts as functional.
In assay [2] the test system is Candida albicans. The assay can be described thus: Antifungal activity against Candida albicans ATCC 10231 assessed as reduction in microbial growth. It counts as functional.
Assay [3] concerns Nakaseomyces glabratus. The assay can be described thus: Antifungal activity against Candida glabrata ATCC 90030 assessed as reduction in microbial growth. It counts as functional.
Assay [4] concerns Pichia kudriavzevii. The assay can be described thus: Antifungal activity against Candida krusei ATCC 6258 assessed as reduction in microbial growth. In kind it is functional.
Assay [5] has as its system Candida parapsilosis. Nature of the assay: Antifungal activity against Candida parapsilosis ATCC 22019 assessed as reduction in microbial growth. As to conditions: Lodderomyces parapsilosis. In kind it is functional.
For assay [6], the system named is Saccharomyces cerevisiae. The assay can be described thus: Antifungal activity against Saccharomyces cerevisiae ATCC 9763 assessed as reduction in microbial growth. In kind it is functional.
The test system of assay [7] is Candida albicans. Nature of the assay: Antifungal activity against fluconazole-sensitive Candida albicans B3 assessed as reduction in microbial growth. In kind it is functional.
Assay [8] has as its system Candida albicans. Nature of the assay: Antifungal activity against fluconazole-resistant Candida albicans B4 assessed as reduction in microbial growth. It counts as functional.
Assay [9] concerns Candida albicans. Nature of the assay: Antifungal activity against fluconazole-sensitive Candida albicans Gu4 assessed as reduction in microbial growth. In kind it is functional.
Assay [10] deals with Candida albicans. Nature of the assay: Antifungal activity against fluconazole-resistant Candida albicans Gu5 assessed as reduction in microbial growth. In kind it is functional.
The test system of assay [11] is Candida albicans. Nature of the assay: Antifungal activity against fluconazole-sensitive Candida albicans F2 assessed as reduction in microbial growth. In kind it is functional.
The subject of assay [12] is Candida albicans. Nature of the assay: Antifungal activity against fluconazole-resistant Candida albicans F5 assessed as reduction in microbial growth. It counts as functional.
The test system of assay [13] is Escherichia coli. The assay can be described thus: Antibacterial activity against Escherichia coli ATCC 10536 assessed as reduction in microbial growth incubated for 48 hrs by photometric method. It counts as functional.
Assay [14] deals with Staphylococcus aureus. Nature of the assay: Antibacterial activity against Staphylococcus aureus ATCC 9144 assessed as reduction in microbial growth incubated for 48 hrs by photometric method. It counts as functional.
Assay [15] concerns Candida albicans. Nature of the assay: Antifungal activity against Candida albicans CNCM 1180-79 assessed as reduction in microbial growth incubated for 72 hrs by photometric method. In kind it is functional.
Assay [16] relates to Candida albicans. Nature of the assay: Fungicidal activity against Candida albicans ATCC 10231. It counts as functional.
Assay [17] relates to Nakaseomyces glabratus. The assay can be described thus: Fungicidal activity against Candida glabrata DSM 11226. In kind it is functional.
Assay [18] relates to Pichia kudriavzevii. Nature of the assay: Fungicidal activity against Candida krusei DSM 6128. In kind it is functional.
Assay [19] concerns Saccharomyces cerevisiae. Nature of the assay: Fungicidal activity against Saccharomyces cerevisiae ATCC 9763. In kind it is functional.
The nature of assay [20]: Ratio of MFC for fungicidal activity against Saccharomyces cerevisiae ATCC 9763 to MIC for antifungal activity against Saccharomyces cerevisiae ATCC 9763. It counts as functional.
For assay [21], the system named is Candida albicans. The assay can be described thus: Fungicidal activity against Candida albicans ATCC 10231 assessed as bacterial killing after 5 hrs. It counts as functional, organism-based.
The test system of assay [22] is Candida albicans. The assay can be described thus: Fungicidal activity against Candida albicans ATCC 10231 assessed as bacterial killing at concentration of 4 MIC after 5 hrs relative to control. In kind it is functional.
The test system of assay [23] is Candida albicans. The assay can be described thus: Fungicidal activity against Candida albicans ATCC 10231 assessed as bacterial killing at concentration of 2 MIC after 5 hrs relative to control. It counts as functional.
Assay [24] has as its system Candida albicans. Nature of the assay: Fungicidal activity against Candida albicans ATCC 10231 assessed as bacterial killing at concentration of MIC after 5 hrs relative to control. In kind it is functional.
The test system of assay [25] is Candida albicans. Nature of the assay: Fungicidal activity against Candida albicans ATCC 10231 assessed as bacterial killing at concentration of 0.5 MIC after 5 hrs relative to control. It counts as functional.
For assay [26], the system named is Candida albicans. Nature of the assay: Fungicidal activity against Candida albicans ATCC 10231 assessed as bacterial killing at concentration of 0.25 MIC after 5 hrs relative to control. In kind it is functional.
Assay [27] has as its system Candida albicans. Nature of the assay: Fungicidal activity against Candida albicans ATCC 10231 assessed as bacterial killing at concentration of 0.25 to 4 MIC after 1 hrs relative to control. It counts as functional.
For assay [28], the system named is Candida albicans. The assay can be described thus: Growth inhibition of Candida albicans ATCC 10231 assessed as reduction in yeast to mycelium formation by measuring reduction in hyphal growth at 0.25 MIC after 3 hrs by light microscopic method relative to control. In kind it is functional.
Assay [29] deals with Candida albicans. The assay can be described thus: Growth inhibition of Candida albicans ATCC 10231 assessed as reduction in yeast to mycelium formation by measuring reduction in hyphal growth at concentration of 0.25 MIC after 3 hrs in G1cNAc medium by light microscopic method relative to control. In kind it is functional, organism-based.
Assay [30] deals with Candida albicans. The assay can be described thus: Growth inhibition of Candida albicans ATCC 10231 assessed as reduction in yeast to mycelium formation by measuring reduction in hyphal growth at concentration of 0.25 MIC after 3 hrs in YPG medium by light microscopic method relative to control. In kind it is functional, organism-based.
The subject of assay [31] is Candida albicans. The assay can be described thus: Antibiofilm activity against Candida albicans ATCC 10231 at concentration of 0.25 MIC by XTT assay. In kind it is functional, organism-based. On the technique in general: Formazan colour is commonly taken as a measure of viable cells.
Assay [32] deals with Saccharomyces cerevisiae. Nature of the assay: Inhibition of Saccharomyces cerevisiae DNA topoisomerase 2 assessed as decrease in relaxation of supercoiled DNA using supercoiled pBR322 plasmid DNA at 1 to 200 uM gel electrophoresis method. To be noted: dose 1-200 µM.
Assay [33] concerns Candida parapsilosis. Nature of the assay: Fungicidal activity against Candida parapsilosis DSM 5784. As to conditions: Lodderomyces parapsilosis. It counts as functional.
Assay [34] has as its system Candida albicans. The assay can be described thus: Fungicidal activity against Candida albicans ATCC 10231 assessed as bacterial killing at concentration of 4 MIC after 1 hrs relative to control. It counts as functional.
For assay [35], the system named is Candida albicans. The assay can be described thus: Fungicidal activity against Candida albicans ATCC 10231 assessed as bacterial killing at concentration of 2 MIC after 1 hrs relative to control. In kind it is functional.
Assay [36] concerns Candida albicans. Nature of the assay: Antibiofilm activity against Candida albicans at 256 ug/ml relative to control. It counts as functional.

The structures appear in SMILES notation. Values after ≈ are worked out from the molar mass of the structure shown. Active and inactive are the calls of the source. The calls are words filed in the database; no cut-off is given here.

As for `O=c1c2cc(O)c(O)c(O)c2[nH]c2cc(O)cc(O)c12`, the MIC in assay [1] is 15.6 µg/mL.
Regarding `Cc1ccc([N+](=O)[O-])c2c(NCCO)c3ccccc3nc12`, the MIC90 in assay [2] turned out to be 1 µg/mL; in assay [3] it was 8 µg/mL; in [4], 8 µg/mL; in assay [5], 64 µg/mL; in assay [6] it was 0.5 µg/mL; in assay [7] it was 4 µg/mL. Besides, the MIC90 in assay [8] is over 64 µg/mL; in assay [9], 4 µg/mL; in [10] it was 32 µg/mL; in assay [11], 2 µg/mL; in [12], over 64 µg/mL. The MIC in assay [13], in assay [14] and in assay [15] was 50 µg/mL in each case. Besides, the MFC in assay [16] is 2 µg/mL (≈ 6.73 µM); in assay [17], over 64 µg/mL; in assay [18] it was 16 µg/mL (≈ 53.8 µM); in assay [19] it was 0.5 µg/mL (≈ 1.68 µM). For the same compound, the Ratio entry in assay [20] is “>=1”. Besides, the Activity entry is “Dose-dependent effect” in assay [21]; 80% in [22]; 70% in [23]; 60% in assay [24]; 5% in assay [25]; 5% in assay [26]. Further, in [27], the Activity is reported as 10%. Further, the “growth inhibition (GI)” value in assay [28], in [29] and in assay [30] was “inactive” throughout. Besides, the outcome in assay [31] was Active. Moreover, the inhibition result in assay [32] was “inactive”.
In the case of `C[C@@H]1[C@H](O)[C@@H](C)/C=C/C=C/C=C/C=C/C=C/C=C/C=C/[C@H](O[C@@H]2O[C@H](C)[C@@H](O)[C@H](N)[C@@H]2O)C[C@@H]2O[C@](O)(C[C@@H](O)C[C@@H](O)[C@H](O)CC[C@@H](O)C[C@@H](O)CC(=O)O[C@H]1C)C[C@H](O)[C@H]2C(=O)O` [AMPHOTERICIN B], the MIC90 in assay [2] was determined as 0.5 µg/mL; in assay [3], 1 µg/mL; in [4], 1 µg/mL; in assay [5], 1 µg/mL; in assay [6] it was 0.5 µg/mL. Besides, the MFC in assay [16], in assay [17], in [18], in assay [33] and in [19] was 2 µg/mL (≈ 2.16 µM) throughout. Also, the Ratio result in assay [20] is “>=1”. Besides, the Activity amounted to 100% in assay [23]; 100% in assay [24]; 70% in assay [26]; 100% in assay [34]; 100% in [35]. The “growth inhibition (GI)” value in assay [28] is listed as 100%. In assay [31], the outcome was Active.
With `CCN(CC)CCCC(C)Nc1c2ccc(Cl)cc2nc2ccc(OC)cc12` (stereo unspecified) [QUINACRINE], in [36], the Activity was found to be 50%.
